Reference: patent US20220330549A1, “USE OF N-BENZYLBENZAMIDE-BASED COMPOUND AS HERBICIDE” (Northwest A&F University, priority 2020, published 2022)

Assays:
Assay type in all cases: in vivo
goosegrass = assay: Field test for weed control in a corn field; conditions: 150 g a.i./ha, after treatment
Summary of the method: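 Weed control efficacy against goosegrass was tested in a corn field following GB/T 17980.42-2000. Compounds formulated as 10% emulsifiable concentrates were diluted in water and sprayed post-emergence at 150 g(a.i.)/ha when corn had 2 to 5 leaves, with 4 replicates of 20 m^2 plots. Herbicidal activity was rated on a 1-9 scale by damage symptoms and severity.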

Portulaca oleracea = assay: Field test for weed control in a corn field; conditions: 150 g a.i./ha, after treatment
Summary of the method: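 Field efficacy trial in corn following GB/T 17980.42-2000. Test compounds were prepared as 10% emulsifiable concentrates, diluted in water, and sprayed at 150 g(a.i.)/ha when corn had 2 to 5 leaves after sowing. Plots were 20 m^2 with 4 replicates per treatment. Herbicidal activity was scored on a 1-9 scale from weed damage symptoms and severity.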

nutgrass flatsedge = assay: Field test for weed control in a corn field; conditions: 150 g a.i./ha, after treatment
Summary of the method: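 A corn field efficacy trial following GB/T 17980.42-2000 assessed post-emergence control of nutgrass flatsedge. Test compounds were formulated as 10% emulsifiable concentrates, diluted in water, and sprayed at 150 g(a.i.)/ha when the corn had 2 to 5 leaves. Each treatment had 4 replicates on 20 m^2 plots. Herbicidal activity was graded on a 1-9 scale by damage symptoms and severity.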

Barnyard grass [1] = assay: Field test for weed control in a corn field; conditions: 150 g a.i./ha, 30 days after treatment
Summary of the method: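 Corn-field efficacy trial following GB/T 17980.42-2000. Test compounds were formulated as 10% emulsifiable concentrates, diluted in water and sprayed post-emergence at 150 g(a.i.)/ha when corn had 2 to 5 leaves. Each treatment was replicated 4 times on 20 m^2 plots. Barnyard grass control was rated on a 1-9 damage scale.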

Digitaria sanguinalis [2] = assay: Field test for weed control in a corn field; conditions: 150 g a.i./ha, after treatment
Summary of the method: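 Field trial in a corn field following GB/T 17980.42-2000. Test compounds were formulated as 10% emulsifiable concentrates, diluted in water and sprayed post-emergence at 150 g(a.i.)/ha when corn had 2 to 5 leaves, with 4 replicates on 20 m^2 plots. Control of Digitaria sanguinalis was scored on a 1-9 scale based on weed damage relative to the untreated blank area.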

Amaranthus retroflexus [3] = assay: Field test for weed control in a corn field; conditions: 150 g a.i./ha, 30 days after treatment
Summary of the method: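 Field efficacy trial in a corn field following GB/T 17980.42-2000. Test compounds were formulated as 10% emulsifiable concentrates, diluted in water and sprayed post-emergence when corn had 2 to 5 leaves. Each treatment covered 20 m^2 with 4 replicates. A 25% mesotrione oil dispersion served as control. Damage to Amaranthus retroflexus was rated on a 1-9 scale against untreated blank plots.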

Acalypha australis = assay: Field test for weed control in a corn field; conditions: 150 g a.i./ha, after treatment
Summary of the method: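 Post-emergence field trial in a corn field following GB/T 17980.42-2000. Test compounds were formulated as 10% emulsifiable concentrates, diluted in water, and sprayed at 150 g(a.i.)/ha when corn had 2 to 5 leaves, with 4 replicates on 20 m^2 plots. Mesotrione 25% oil dispersion served as the control agent. Weed control was scored on a 1-9 scale.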

Solanum nigrum = assay: Field test for weed control in a corn field; conditions: 150 g a.i./ha, 30 days after treatment
Summary of the method: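 Post-emergence weed control was tested in a corn field following GB/T 17980.42-2000. Compounds were made into 10% emulsifiable concentrates, diluted in water and sprayed at 150 g(a.i.)/ha when corn had 2 to 5 leaves after sowing, in 20 m^2 plots with 4 replicates. Effects on Solanum nigrum were graded on a 1-9 scale relative to the blank control area.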

Chenopodium album = assay: Field test for weed control in a corn field; conditions: 150 g a.i./ha, after treatment
Summary of the method: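 A corn-field efficacy trial following GB/T 17980.42-2000 tested post-emergence control of Chenopodium album. Test compounds formulated as 10% emulsifiable concentrates were diluted in water and sprayed at 150 g(a.i.)/ha when the corn had 2 leaves to 5 leaves, on 20 m^2 plots with 4 replicates. Herbicidal activity was rated on a 1-9 scale by damage symptoms and severity.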

Convolvulus arvensis = assay: Field test for weed control in a corn field; conditions: 150 g a.i./ha, after treatment
Summary of the method: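 Field trial of weed control against Convolvulus arvensis in corn, run following GB/T 17980.42-2000. Test agents were formulated as 10% emulsifiable concentrates and sprayed in water at 150 g(a.i.)/ha when corn plants had 2 to 5 leaves. Each treatment was replicated 4 times on 20 m^2 plots, and 25% mesotrione oil dispersion served as the control agent.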

green bristlegrass [4] = assay: Field test for weed control in a corn field; conditions: 150 g a.i./ha, after treatment
Summary of the method: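 Post-emergence weed control was tested in a corn field following GB/T 17980.42-2000. When the corn had 2 leaves to 5 leaves after sowing, 10% emulsifiable concentrates diluted in water were sprayed at 150 g(a.i.)/ha on 20 m^2 plots, four replicates per treatment. Effects on green bristlegrass were scored on a 1-9 damage scale relative to the blank control area.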

Digitaria sanguinalis [5] = assay: Herbicidal activity test for indoor pre-emergence soil treatment; design: key: 1-9 levels; higher = more weed remaining vs blank control; conditions: 150 g a.i./ha, visual inspection 21 days after treatment
Summary of the method: (§1)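 Pre-emergence soil spray per NY/T 1155.3-2006: weed seeds sown in moistened neutral sandy loam (organic content ≤2%), covered with 0.5–2.0 cm soil, then sprayed 24 h later with a water-diluted 10% emulsifiable concentrate at 150 g(a.i.)/ha. Visual rating after 21 days on a 1–9 scale.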

Amaranthus retroflexus [6] = assay: as above; design: key: 1-9 levels; higher = more weed remaining vs blank control; conditions: 150 g a.i./ha, visual inspection 21 days after treatment
Summary of the method: as §1

Piemarker [7] = assay: Herbicidal activity test for indoor post-emergence spraying on stems and leaves; design: key: grade level by weed remaining vs blank control, e.g. 5 = 10.1-15%; conditions: 150 g a.i./ha, visual inspection 21 days after treatment
Summary of the method: (§2)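 Run per NY/T 1155.4-2006: weeds sown, grown in greenhouse, then sprayed post-emergence on stems and leaves. Effect scored visually 21 days after treatment on a graded level scale relative to weed in the blank control area.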

Barnyard grass [8] = assay: as above; design: key: grade level by weed remaining vs blank control, e.g. 5 = 10.1-15%; conditions: 150 g a.i./ha, visual inspection 21 days after treatment
Summary of the method: as §2

Digitaria sanguinalis [9] = assay: as above; design: key: grade level by weed remaining vs blank control, e.g. 5 = 10.1-15%; conditions: 150 g a.i./ha, visual inspection 21 days after treatment
Summary of the method: as §2

Amaranthus retroflexus [10] = assay: as above; design: key: grade level by weed remaining vs blank control, e.g. 5 = 10.1-15%; conditions: 150 g a.i./ha, visual inspection 21 days after treatment
Summary of the method: as §2

green bristlegrass [11] = assay: as above; design: key: grade level by weed remaining vs blank control, e.g. 5 = 10.1-15%; conditions: 150 g a.i./ha, visual inspection 21 days after treatment
Summary of the method: as §2

Humulus scandens [12] = assay: as above; design: key: grade level by weed remaining vs blank control, e.g. 5 = 10.1-15%; conditions: 150 g a.i./ha, visual inspection 21 days after treatment
Summary of the method: as §2

Gramineae = assay: Post-emergence herbicidal activity test in a paddy field; design: key: level scale; higher level = more weed left vs blank control; conditions: 150 g a.i./ha (penoxsulam control 250 g(a.i.)/h)
Summary of the method: (§3)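 Efficacy was visually estimated 15 and 30 days after spraying, grading weed coverage relative to an untreated neighbouring plot (level 2 = 0 to 2.5%, level 9 = 67.6 to 100%). Treatments were 150 g(a.i.)/ha from 10% emulsifiable concentrates applied at the 4-5 leaf rice stage, four repeats of 50 m^2 each.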

Cyperaceae = assay: as above; design: key: level scale; higher level = more weed left vs blank control; conditions: 150 g a.i./ha (penoxsulam control 250 g(a.i.)/h)
Summary of the method: as §3

Broadleaf weed = assay: as above; design: key: level scale; higher level = more weed left vs blank control; conditions: 150 g a.i./ha (penoxsulam control 250 g(a.i.)/h)
Summary of the method: as §3

Piemarker [13] = assay: Herbicidal activity test for indoor pre-emergence soil treatment; design: key: level 1-9; higher = more weed remaining vs blank control; conditions: 150 g a.i./ha, visual inspection 21 days after treatment
Summary of the method: as §1

Barnyard grass [14] = assay: as above; design: key: level 1-9; higher = more weed remaining vs blank control; conditions: 150 g a.i./ha, visual inspection 21 days after treatment
Summary of the method: as §1

green bristlegrass [15] = assay: as above; design: key: level 1-9; higher = more weed remaining vs blank control; conditions: 150 g a.i./ha, visual inspection 21 days after treatment
Summary of the method: as §1

Humulus scandens [16] = assay: as above; conditions: 150 g a.i./ha, visual inspection 21 days after treatment
Summary of the method: as §1

Row | SMILES | Post-emergence weed control effect, Goose grass (goosegrass) | Post-emergence weed control effect, Portulaca oleracea (Portulaca oleracea) | Post-emergence weed control effect, Nutgrass flatsedge (nutgrass flatsedge) | Post-emergence weed control effect, Barnyard grass (Barnyard grass [1]) | Post-emergence weed control effect, Digitaria sanguinalis (Digitaria sanguinalis [2]) | Post-emergence weed control effect, Amaranthus retroflexus (Amaranthus retroflexus [3]) | Post-emergence weed control effect, Acalypha australis (Acalypha australis) | Post-emergence weed control effect, Solanum nigrum (Solanum nigrum) | Post-emergence weed control effect, Chenopodium album (Chenopodium album) | Post-emergence weed control effect, Convolvulus arvensis (Convolvulus arvensis) | Post-emergence weed control effect, Green bristlegrass (green bristlegrass [4]) | Herbicidal Activity Digitaria sanguinalis (Digitaria sanguinalis [5]) | Herbicidal Activity Amaranthus retroflexus (Amaranthus retroflexus [6]) | Herbicidal Activity Piemarker (Piemarker [7]) | Herbicidal Activity Barnyard grass (Barnyard grass [8]) | Herbicidal Activity Digitaria sanguinalis (Digitaria sanguinalis [9]) | Herbicidal Activity Amaranthus retroflexus (Amaranthus retroflexus [10]) | Herbicidal Activity Green bristlegrass (green bristlegrass [11]) | Herbicidal Activity Humulus scandens (Humulus scandens [12]) | Herbicidal activity 15 days after treatment Gramineae (Gramineae) | also measured
1 | COc1ccc(OC)c(C(=O)NCc2cc(F)cc(Cl)c2)c1 [Compound A28] | 2 (equivalent to 0 to 2.5% of the weed in the blank control area) | 1 | 2 (equivalent to 0 to 2.5% of the weed in the blank control area) | 1 | 2 (equivalent to 0 to 2.5% of the weed in the blank control area) | 1 | 2 (equivalent to 0 to 2.5% of the weed in the blank control area) | 2 (equivalent to 0 to 2.5% of the weed in the blank control area) | 1 | 1 | 1 | 1 | 1 | 1 | 1 | 1 | 1 | 1 | 1 | 2 (equivalent to 0 to 2.5% of the weed in the blank control area) | Herbicidal activity 30 days after treatment Gramineae (Gramineae): 1; Herbicidal activity 15 days after treatment Cyperaceae (Cyperaceae): 2 (equivalent to 0 to 2.5% of the weed in the blank control area); Herbicidal activity 30 days after treatment Cyperaceae (Cyperaceae): 1; Herbicidal activity 15 days after treatment Broadleaf weed (Broadleaf weed): 1; Herbicidal activity 30 days after treatment Broadleaf weed (Broadleaf weed): 1; Herbicidal Activity Piemarker (Piemarker [13]): 1; Herbicidal Activity Barnyard grass (Barnyard grass [14]): 1; Herbicidal Activity Green bristlegrass (green bristlegrass [15]): 1; Herbicidal Activity Humulus scandens (Humulus scandens [16]): 2 (equivalent to 0 to 2.5% of the weed in the blank control area)
2 | COc1ccc(OC)c(C(=O)NCc2cc(Cl)cc(Cl)c2)c1 [Compound A29] | 2 (equivalent to 0 to 2.5% of the weed in the blank control area) | 1 | 2 (equivalent to 0 to 2.5% of the weed in the blank control area) | 1 | 2 (equivalent to 0 to 2.5% of the weed in the blank control area) | 1 | 1 | 2 (equivalent to 0 to 2.5% of the weed in the blank control area) | 1 | 2 (equivalent to 0 to 2.5% of the weed in the blank control area) | 2 (equivalent to 0 to 2.5% of the weed in the blank control area) | 2 (equivalent to 0 to 2.5% of the weed in the blank control area) | 1 | 1 | 1 | 1 | 1 | 1 | 1 | 2 (equivalent to 0 to 2.5% of the weed in the blank control area) | Herbicidal activity 30 days after treatment Gramineae (Gramineae): 1; Herbicidal activity 15 days after treatment Cyperaceae (Cyperaceae): 1; Herbicidal activity 30 days after treatment Cyperaceae (Cyperaceae): 2 (equivalent to 0 to 2.5% of the weed in the blank control area); Herbicidal activity 15 days after treatment Broadleaf weed (Broadleaf weed): 1; Herbicidal activity 30 days after treatment Broadleaf weed (Broadleaf weed): 1; Herbicidal Activity Piemarker (Piemarker [13]): 1; Herbicidal Activity Barnyard grass (Barnyard grass [14]): 1; Herbicidal Activity Green bristlegrass (green bristlegrass [15]): 1; Herbicidal Activity Humulus scandens (Humulus scandens [16]): 2 (equivalent to 0 to 2.5% of the weed in the blank control area)
